Measured values from a melting point compilation (Tetko et al.; mined from patent text by program, amines drawn as free bases though some values may be those of a salt).

Row | SMILES | melting point [°C]
1 | CCOC(=O)CC(CCCCNC(=O)c1sc(NC(=N)N)nc1C)c1ccccc1 (racemic) | 138
2 | COCOc1ccc(C=CC(=O)C=Cc2ccc(OCOC)c(OC)c2)cc1OC | 81 to 82
3 | OCCc1c[nH]c2cc(Cl)c(Cl)cc12 | 65 to 67
4 | NC(N)=Nc1nc(-c2cccc(CNC(=O)C3CCCNC3)n2)cs1 (stereo unspecified) | 227 to 228
5 | CC1CC(=O)NN=C1c1ccc(N2CCN(CCCCN)CC2)c([N+](=O)[O-])c1 (stereo unspecified) | 145 to 146
6 | COc1cc2ccc3c4cc(OC)c(OC)cc4nc(C)c3c2cc1OC | 255 to 257
7 | Cc1cc(C2=NN(C3=NCCS3)C(C)Cc3cc4c(cc32)OCO4)ccc1[N+](=O)[O-] (stereo unspecified) | 130 to 135
8 | COc1cc(NC2=NCC3(CN4CCC3CC4)O2)ncn1 (stereo unspecified) | 80 to 85
9 | O=c1cnc(-c2cc(-c3ccsc3)cc(-c3ccsc3)c2)nn1CC(F)(F)F | 189 to 191
10 | CN(C)CCNc1ccc([N+](=O)[O-])c2sc3ccccc3c(=O)c12 | 177 to 179
11 | CCOC(=O)c1ncc(Cl)cc1N | 140 to 142
12 | CC(C)(C)c1ccc(C(=O)NP(N)(N)=O)cc1 | 232
13 | Cc1nnc2n1-c1ccc(Br)cc1C(c1ccccc1)=NC2 | 268 to 270
14 | COc1ccc(C(=O)C#Cc2ccc3c(c2)c(=O)n(Cc2ccc(F)cc2)c(=O)n3C)cc1 | 240
15 | CCCCc1nc2c(N)nc3cccnc3c2n1CCNC(=O)c1cccc(O)n1 | 258 to 260
16 | Cc1ncc2c(c1C#N)COc1ccccc1C2=O | 124 to 126
17 | CCC(=C(c1ccc(O)cc1)c1ccc(O)cc1)c1ccc(/C=C/C(=O)O)cc1 | 280 to 281
18 | COP(=O)(OC)C(O)=Cc1ccc(Cl)cc1 | 89 to 92
19 | CCOC(=O)c1c(Cl)c2cc(Cl)cnc2[nH]c1=O | 228
20 | CC1(c2ccccc2)Cc2c3c(c(Cl)c(Cl)c2C1=O)OC(C(=O)O)C3 (stereo unspecified) | 188
21 | O=C1NC(c2ccccc2)N(CCN2CCN(c3ccccc3)CC2)c2ccccc21 (stereo unspecified) | 142 to 144
22 | COc1cccc2c(=O)c3c(OCC4CS4)cc(OCC4CS4)cc3oc12 (stereo unspecified) | 240
23 | Cn1ncnc1COc1nn2c(-c3ccc(F)cc3F)nnc2cc1C1(C)CCCCC1 | 196

Row | SMILES | melting point [°C]
24 | CCOC(=O)c1c(Cn2cncn2)nc2cc(OC)c(OC)cc2c1-c1ccc(OC)cc1 | 150 to 151
25 | O=C1CCc2cc(C(O)c3ccccc3)ccc2N1 (stereo unspecified) | 175
26 | Cc1ccc(S(=O)(=O)c2nnnn2C)cc1 | 110 to 111
27 | Cc1ccc(-c2coc3c(C)c(C)cc(C)c23)cc1 | 112 to 113
28 | COc1ccc(C2=NNC(=O)CC2c2ccc(OC)c(F)c2)cc1F (stereo unspecified) | 196 to 198
29 | O=C1c2cc3nn[nH]c(=O)c3cc2OC2CCCN12 (stereo unspecified) | 253
30 | CCOC(=O)C(=O)Nc1ccc(N(C)C)cc1O | 259 to 260
31 | Cc1cccc(NC(N)=S)n1 | 188 to 190
32 | CNC(=O)CN1CCc2cc(Nc3ncc(Cl)c(Nc4ccccc4C(=O)NC)n3)c(OC)cc2CC1 | 200 to 216
33 | COCC1CCCN1S(=O)(=O)c1ccc2c(c1)C1(OCCCO1)C1=NCC(C)(C)CN12 (stereo unspecified) | 169 to 171
34 | CC(C)c1nn(-c2ccccn2)c(-c2ccc(F)cc2)c1/C=C/CO | 106 to 109
35 | FC(F)(F)c1cccc(Nc2ccccc2-c2n[nH]c(=S)s2)c1 | 140 to 142
36 | Cc1cc(C(N)=O)nn1CCO | 170 to 172
37 | CC(=O)Nc1c([N+](=O)[O-])cc(Br)c2c1CCN(C)C2 | 190 to 192
38 | COC(=O)c1nc(-c2ccc(Br)c(OC)c2F)cc(NC(C)=O)c1Cl | 164 to 165
39 | CC(C)(C)P(=O)(CCC(=O)O)CCC(=O)O | 174
40 | Cc1cc(N)ccc1N1CCOCC1 | 83 to 84
41 | CC(C)N(C)c1ncc([N+](=O)[O-])cc1Cl | 56 to 57
42 | COC(=O)CC=CC=Cc1ccccc1 | 71
43 | CCOC(=O)c1cn(CCCO)c(=O)c2cc(Cl)ccc12 | 193
44 | CC(O)(c1ccccc1)C1CCN1C(c1ccccc1)c1ccccc1 (stereo unspecified) | 152 to 154
45 | Cc1nc(Cn2c(=O)sc3cc(F)c(N=C=O)cc32)no1 | 125 to 127
46 | CS(=O)(=O)CC(=O)N[C@H]1CC[C@H](CCN2CCN(c3nccc4c3CCO4)CC2)CC1 | 260

Row | SMILES | melting point [°C]
47 | CCCCCCCCCCCCCCCCCCOc1cc(N(CC(=O)OC)CC(=O)OC)cc(S(C)=O)c1 (stereo unspecified) | 80 to 82
48 | CC(=O)OCC1CC(OC(C)=O)C(n2cc(C(I)=CI)c(=O)[nH]c2=O)O1 (stereo unspecified) | 75 to 77
49 | CCCCc1ncc(/C=C(\Cc2cccs2)C(N)=O)n1Cc1ccccc1Cl | 182 to 184
50 | N#CCCn1ccc(NC(N)=NCC(F)(F)F)n1 | 141 to 142
51 | CCCN1CCO[C@@H]2c3cc(C(=O)N(C)C)ccc3CC[C@H]21 (relative stereo) | 85 to 87
52 | CCc1nc2c(N)nc3ccccc3c2n1CCCC1(C)OCCO1 | 195 to 196
53 | C=CCC1CC(NC(=O)C(F)(F)F)C(OC(=O)c2ccc([N+](=O)[O-])cc2)C(C)O1 (stereo unspecified) | 138 to 139
54 | N#Cc1cc(-c2ccc(Cl)cc2Cl)c[nH]c1=O | > 260
55 | CC(=O)N(CCCC(=O)c1ccccc1)C(C)C | 36 to 39
56 | CNC(=O)[C@@H](C[C@H](O)[C@H](CC1CCCCC1)NC(=O)[C@H](Cc1cscn1)NC(=O)OC(C)(C)C)C(C)(C)O | 203 to 205
57 | Cc1cccc(-c2ccc3ccc(N)nc3n2)c1 | 180
58 | COC(=O)c1c(C(F)F)nc(C(F)(F)F)c(C(=O)OC)c1CC(C)C | 36 to 37
59 | CC(C)C(=O)Nc1ccn(C)c1 | 125 to 126
60 | O=[N+]([O-])C(=Cc1ccc(F)cc1)c1ccc(F)cc1 | 107 to 109
61 | Cc1cc2c(cc1O)C(C)(C)CC1(CC(C)(C)c3cc(OCCCn4nc(CO)cc4C)c(C)cc3O1)O2 (stereo unspecified) | 217 to 219
62 | COc1cc(Cl)c2c(=O)c(N3CCCCC3)coc2c1 | 122 to 125
63 | Cc1c(C=NO)c2ccccc2n1C(=O)c1ccc(Cl)cc1 | 152
64 | CC(=O)N1C(=O)c2ccccc2N(C(C)=O)C1C(Cl)(Cl)Cl (stereo unspecified) | 152 to 154
65 | CCCNc1nc(-c2ccc(OC)c(OC)c2)nc2sc(C#N)c(C)c12 | 179 to 181
66 | OC1Cn2cccc2Sc2ccccc21 (stereo unspecified) | 101 to 102
67 | CCCCS(=O)c1ccc(-n2[nH]c3ccccc3c2=O)cc1 (stereo unspecified) | 168 to 169
68 | CCOC(=O)C=Cc1ccc(C(F)(F)F)cc1 | 31 to 32.5
69 | O=C1CCNN1c1ccc(Cl)cc1 | 120 to 122

Further lines, results first:

Row | melting point [°C] | SMILES
70 | 185 to 187 | O=C1N(CCO)c2ccccc2C(c2ccccc2)N1C1CCN(Cc2cccc(CO)c2)CC1 (stereo unspecified)
71 | 152 to 153 | COC(=O)c1cccc(OCCC(C#N)NC(=O)C(Cc2cccc(C)c2)NC(=O)C(c2ccccc2)c2ccccc2)c1 (stereo unspecified)
72 | 180 to 181 | OC1CCCc2nc3sccc3c(NCc3ccccc3)c21 (stereo unspecified)
73 | 31 to 33 | Nc1ccc(Oc2ccccc2)c(Cl)c1
74 | 170 to 172 | COc1cc(COc2nn(-c3ccccc3)cc2/C=C/c2nc(C(=O)O)cs2)ccc1OCc1nc(-c2ccco2)oc1C
75 | 142 to 143 | CC(C)c1ccc(O[C@@H](Cc2ccc(O)cc2)C(=O)N2C(=O)OC[C@@H]2Cc2ccccc2)cc1
76 | > 180 | O=C(O)Cn1c(=O)c(=O)[nH]c2ccc3ccc(-n4cccc4CNC(=O)c4ccccc4)cc3c21
77 | 56 to 57 | O=C(OCc1ccc(OCCCCCCc2ccc(Cl)cc2)cc1)c1cccnc1
78 | 81 | O=C(CC1=CC(O)CC1=O)Oc1ccc2ccccc2c1 (stereo unspecified)
79 | 261 to 262 | O=C(O)c1ccc2c(=O)c3ccccc3ccc2c1
80 | 123 to 125 | COc1cccc(-c2nc(-c3ccccc3C)n(C(=O)Nc3ccccc3)n2)c1
81 | 119 to 120 | COC(=O)c1cccc(Oc2ncccc2C(=O)NCc2ccccc2)c1
82 | 144 to 145 | CNC(=O)C(=O)c1ccccc1COc1ccc(-c2ccccc2)cc1
83 | 205 to 206 | Cc1cccc2ncc(C(=O)NCc3ccc(Cl)cc3)c(O)c12
84 | 87 to 91 | CN(C)CCOc1ccc(Nc2nccc(-c3c[nH]nc3-c3ccc(OCc4ccccc4)cc3)n2)cc1
85 | 144 to 146 | COC(=O)c1cccc(NC(=O)C=Cc2ccc(OC)c(OC)c2)c1N

Row | melting point [°C] | SMILES
86 | 128 to 130 | CC(C)(Oc1ccc(OCc2cccc3c2cnn3-c2ccc(C(F)(F)F)cc2)cc1)C(=O)O
87 | 257 to 259 | CC(C)(C)C(NC(=O)c1cccc(Br)c1)Nc1c(Nc2cccnc2Cl)c(=O)c1=O (stereo unspecified)
88 | 112 to 114 | COc1ccc2c(c1)/C(=C/C#N)C(c1ccccc1)C2 (stereo unspecified)
89 | 129 to 130 | O=S(=O)(Oc1ccc(Oc2ccc(OS(=O)(=O)c3ccccc3)cc2)cc1)c1ccccc1
90 | 108 | O=C(C=Cc1cccc(Cl)c1)c1ccccc1O
91 | 187 to 190 | O=c1ccnc(NCCN(Cc2ccccc2)c2ccccn2)[nH]1
92 | 120 to 122 | CN1C(=O)Cn2c(nn(Cc3ccccc3)c2=O)-c2cc(Cl)ccc21
93 | 236 to 237 | CCc1cnc2c(NC(=O)c3c(Cl)cccc3Cl)cccc2c1CCC(=O)O
94 | 254 to 256 | COCCNC(=O)c1cc2c(nc(C)n2C)c2c1CCC(c1ccccc1)O2 (stereo unspecified)
95 | 172 to 174 | COc1ccc(-c2c(Cl)c(CNC(C)=O)nc3sc4c(c23)CCN(Cc2ccccc2)C4)cc1OC
96 | 118 to 120 | CC(C)NN(C[C@@H](O)[C@H](Cc1ccccc1)NC(=O)OCc1ccccc1)C(=O)OC(C)(C)C
97 | 303 to 306 | Cc1nn(-c2ccccn2)c2[nH]c3cccc(C(=O)O)c3c(=O)c12
98 | 77 to 81 | COc1cccc(C(=O)N(CC=O)c2ccccc2OC)c1
99 | 105 to 109 | CCCn1nc(Cc2ccc(-c3ccccc3S(=O)(=O)NC(=O)c3ccccc3)cc2)c(C(=O)O)c1Cc1ccccc1
100 | 145 to 148 | Cc1ccccc1-c1ccc(C(=O)N2Cc3cccn3Cc3ccccc32)cc1C
101 | 237 to 240 | CN(C(=O)c1cc2c(cn1)[nH]c1ccccc12)c1ccccc1
